Data reported in the supplement of paper PMC13380429.

Key:
Conditions in all cases: 72 h
U2OS [1] = assay: cell viability relative to DMSO; higher = less toxic
HepG2 [2] = assay: as above
Vero E6 [3] = assay: as above
Caco-2 [4] = assay: as above
U2OS [5] = assay: drug sensitivity score (DSS) for viability; higher = more toxic; extreme values may be limits of the assay
HepG2 [6] = assay: as above
Vero E6 [7] = assay: as above
Caco-2 [8] = assay: as above
U2OS [9] = assay: relative viability EC50 (midpoint between 100% and the lowest measured viability); higher = less toxic
HepG2 [10] = assay: as above
Vero E6 [11] = assay: as above
Caco-2 [12] = assay: as above
Calu-3 = assay: drug sensitivity score (DSS) for viability; higher = more toxic; extreme values may be limits of the assay

Compound | cell viability (U2OS [1]; 1 nM) | cell viability (U2OS [1]; 10 nM) | cell viability (U2OS [1]; 100 nM) | cell viability (U2OS [1]; 1000 nM) | cell viability (U2OS [1]; 10000 nM) | cell viability (HepG2 [2]; 1 nM) | cell viability (HepG2 [2]; 10 nM) | cell viability (HepG2 [2]; 100 nM) | cell viability (HepG2 [2]; 1000 nM) | cell viability (HepG2 [2]; 10000 nM) | cell viability (Vero E6 [3]; 1 nM) | cell viability (Vero E6 [3]; 10 nM) | cell viability (Vero E6 [3]; 100 nM) | cell viability (Vero E6 [3]; 1000 nM) | cell viability (Vero E6 [3]; 10000 nM) | cell viability (Caco-2 [4]; 1 nM) | cell viability (Caco-2 [4]; 10 nM) | cell viability (Caco-2 [4]; 100 nM) | cell viability (Caco-2 [4]; 1000 nM) | cell viability (Caco-2 [4]; 10000 nM) | drug sensitivity score (U2OS [5]) | drug sensitivity score (HepG2 [6]) | drug sensitivity score (Vero E6 [7]) | drug sensitivity score (Caco-2 [8]) | relative viability EC50 (U2OS [9]) | relative viability EC50 (HepG2 [10]) | relative viability EC50 (Vero E6 [11]) | relative viability EC50 (Caco-2 [12]) | drug sensitivity score (Calu-3)
O=C(O)c1cc2occc2[nH]1 | 98.6% | 104% | 99.5% | 102% | 98.7% | 99.2% | 104% | 103% | 92.6% | 103% | 107% | 104% | 102% | 99.8% | 101% | 91.3% | 89% | 94.2% | 94.1% | 94.6% | 0 | 0 | 0 | 0 | > 10 µM | > 10 µM | > 10 µM | > 10 µM | –
Cc1ccc(S(=O)(=O)NC(=O)NN2CC3CCCC3C2)cc1 (centres undefined) [gliclazide] | 92% | 99.3% | 102% | 93.3% | 101% | 99.1% | 96.1% | 105% | 118% | 108% | 106% | 97% | 101% | 99.2% | 102% | 87% | 110% | 100% | 102% | 89% | 0 | 0 | 0 | 0 | > 10 µM | > 10 µM | > 10 µM | > 10 µM | –
CCCCCCCCCCCCCCOC(=O)c1cccnc1 [myristyl-nicotinate] | 101% | 96.7% | 101% | 98.4% | 102% | 98.7% | 93.5% | 105% | 99.4% | 102% | 96.6% | 98.2% | 97.6% | 102% | 101% | 98.2% | 103% | 97.7% | 97.8% | 103% | 0 | 0 | 0 | 0 | > 10 µM | > 10 µM | > 10 µM | > 10 µM | –
CC1(C)S[C@@H]2[C@H](NC(=O)[C@H](N)c3ccccc3)C(=O)N2[C@H]1C(=O)O [ampicillin] | – | – | – | – | – | – | – | – | – | – | – | – | – | – | – | – | – | – | – | – | 0 | 0 | 0 | – | – | – | – | – | 0
O=C(/C=C/c1ccc(O)c2c1[C@H](C(=O)O[C@H](Cc1ccc(O)c(O)c1)C(=O)O)[C@@H](c1ccc(O)c(O)c1)O2)O[C@H](Cc1ccc(O)c(O)c1)C(=O)O [salvianolic-acid-B] | 94.4% | 98.2% | 97.5% | 101% | 97.8% | 101% | 86.8% | 107% | 96.3% | 98% | 96.1% | 92.9% | 95.3% | 91.6% | 103% | 99.2% | 97.1% | 96.6% | 104% | 101% | 0 | 0 | 0 | 0 | > 10 µM | > 10 µM | > 10 µM | > 10 µM | –
c1ccc(CCNc2nc(-c3ccccc3)cs2)cc1 [fanetizole] | 104% | 104% | 104% | 97.7% | 101% | 101% | 96.9% | 103% | 94.5% | 100% | 98.7% | 99.7% | 101% | 98.4% | 100% | 96.4% | 87.3% | 92.3% | 88.9% | 87.3% | 0 | 0 | 0 | 0.9 | > 10 µM | > 10 µM | > 10 µM | > 10 µM | –
